# Measurements: ChEMBL document CHEMBL1201861, “Genomics of Drug Sensitity in Cancer screening data, Wellcome Trust Sanger Institute”
# Tests used:
# Assay in all cases: cells
# Details in all cases: Homo sapiens
# [1] = tested on: OVCAR-8; type: functional, cell-based;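 further: growth inhibition of human OVCAR-8 cells, read out by a cell viability assay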
# Description: SANGER: Inhibition of human OVCAR-8 cell growth in a cell viability assay.
# [2] = tested on: SF-268; type: functional, cell-based;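 further: growth inhibition of SF-268 cells determined with a cell viability assay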
# Description: SANGER: Inhibition of human SF268 cell growth in a cell viability assay.
# [3] = tested on: SW982; type: functional, cell-based;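 further: growth inhibition of SW982 cells, read out with a cell viability assay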
# Description: SANGER: Inhibition of human SW982 cell growth in a cell viability assay.
# [4] = tested on: CPC-N; type: functional, cell-based;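 further: growth inhibition of CPC-N cells, with a cell viability assay as the readout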
# Description: SANGER: Inhibition of human CPC-N cell growth in a cell viability assay.
# [5] = tested on: RS4-11; type: functional, cell-based;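 further: growth inhibition of RS4-11 cells, read out by a cell viability assay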
# Description: SANGER: Inhibition of human RS4-11 cell growth in a cell viability assay.
# [6] = tested on: A704; type: functional, cell-based;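 further: growth inhibition of human A704 cells, read out with a cell viability assay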
# Description: SANGER: Inhibition of human A704 cell growth in a cell viability assay.
# [7] = tested on: LAN-6; type: functional, cell-based;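 further: growth inhibition of LAN-6 cells, determined with a cell viability assay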
# Description: SANGER: Inhibition of human LAN-6 cell growth in a cell viability assay.
# [8] = tested on: SNU1; type: functional, cell-based;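 further: growth inhibition of human NCI-SNU-1 cells, measured with a cell viability assay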
# Description: SANGER: Inhibition of human NCI-SNU-1 cell growth in a cell viability assay.
# [9] = tested on: NCI-H1770; type: functional, cell-based;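 further: growth inhibition of NCI-H1770 cells determined with a viability readout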
# Description: SANGER: Inhibition of human NCI-H1770 cell growth in a cell viability assay.
# [10] = tested on: HH; type: functional, cell-based
# Description: SANGER: Inhibition of human HH cell growth in a cell viability assay.
# [11] = tested on: NCI-H1838; type: functional, cell-based;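 further: growth inhibition of NCI-H1838 cells, determined with a cell viability readout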
# Description: SANGER: Inhibition of human NCI-H1838 cell growth in a cell viability assay.
# [12] = tested on: AM-38; type: functional, cell-based;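 further: growth inhibition of AM-38 cells of human origin, read out by a cell viability assay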
# Description: SANGER: Inhibition of human AM-38 cell growth in a cell viability assay.
# [13] = tested on: ECC4; type: functional, cell-based;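 further: growth inhibition of ECC4 cells, read out with a cell viability assay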
# Description: SANGER: Inhibition of human ECC4 cell growth in a cell viability assay.
# [14] = tested on: UACC-893; type: functional, cell-based
# Description: SANGER: Inhibition of human UACC-893 cell growth in a cell viability assay.
# [15] = tested on: 697; type: functional, cell-based
# Description: SANGER: Inhibition of human 697 cell growth in a cell viability assay.
# [16] = tested on: OCUB-M; type: functional, cell-based;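 further: growth inhibition of the cancer cell line, read out through a cell viability assay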
# Description: SANGER: Inhibition of human OCUB-M cell growth in a cell viability assay.
# [17] = tested on: KM-H2; type: functional, cell-based;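 further: growth inhibition of KM-H2 cells, read out by a cell viability assay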
# Description: SANGER: Inhibition of human KM-H2 cell growth in a cell viability assay.
# [18] = tested on: HuTu80; type: functional, cell-based, HUTU-80;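 further: growth inhibition of HuTu80 human cells, determined with a cell viability readout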
# Description: SANGER: Inhibition of human HUTU-80 cell growth in a cell viability assay.
# [19] = tested on: JEG-3; type: functional, cell-based;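 further: growth inhibition of human JEG-3 cells, read out with a cell viability assay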
# Description: SANGER: Inhibition of human JEG-3 cell growth in a cell viability assay.
# [20] = tested on: IST-SL1; type: functional, cell-based;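 further: growth inhibition of human IST-SL1 cells, read out with a cell viability assay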
# Description: SANGER: Inhibition of human IST-SL1 cell growth in a cell viability assay.
# [21] = tested on: GB-1; type: functional, cell-based;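 further: growth of GB-1 cells judged by a viability assay, IC50 marks the concentration inhibiting growth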
# Description: SANGER: Inhibition of human GB-1 cell growth in a cell viability assay.
# [22] = tested on: MS-1; type: functional, cell-based;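 further: growth inhibition of MS-1 cells, read out by cell viability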
# Description: SANGER: Inhibition of human MS-1 cell growth in a cell viability assay.
# [23] = tested on: ML-2; type: functional, cell-based;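 further: growth inhibition of ML-2 cells, measured with a cell viability readout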
# Description: SANGER: Inhibition of human ML-2 cell growth in a cell viability assay.
# [24] = tested on: EOL1; type: functional, cell-based;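 further: growth inhibition of EoL-1 cells, read out by a cell viability assay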
# Description: SANGER: Inhibition of human EoL-1-cell cell growth in a cell viability assay.
# [25] = tested on: RPMI-8226; type: functional, cell-based
# Description: SANGER: Inhibition of human RPMI-8226 cell growth in a cell viability assay.
# [26] = tested on: COLO-684; type: functional, cell-based
# Description: SANGER: Inhibition of human COLO-684 cell growth in a cell viability assay.
# [27] = tested on: TE-12; type: functional, cell-based;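 further: growth inhibition of TE-12 cells, read out by a cell viability assay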
# Description: SANGER: Inhibition of human TE-12 cell growth in a cell viability assay.
# [28] = tested on: DB; type: functional, cell-based
# Description: SANGER: Inhibition of human DB cell growth in a cell viability assay.
# [29] = tested on: SK-LMS-1; type: functional, cell-based;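 further: growth inhibition of human SK-LMS-1 cells, read out with a cell viability assay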
# Description: SANGER: Inhibition of human SK-LMS-1 cell growth in a cell viability assay.
# [30] = tested on: A498; type: functional, cell-based;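 further: growth inhibition of human A498 cells, read out with a cell viability assay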
# Description: SANGER: Inhibition of human A498 cell growth in a cell viability assay.
# [31] = tested on: ES6; type: functional, cell-based;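 further: growth inhibition of human ES6 cells, read out with a cell viability assay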
# Description: SANGER: Inhibition of human ES6 cell growth in a cell viability assay.
# [32] = tested on: KYSE-450; type: functional, cell-based;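 further: cell growth inhibition measured by a viability assay in human KYSE-450 cells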
# Description: SANGER: Inhibition of human KYSE-450 cell growth in a cell viability assay.
# [33] = tested on: Calu-6; type: functional, cell-based;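 further: growth of human Calu-6 cells, read out by a cell viability assay, IC50 marking inhibition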
# Description: SANGER: Inhibition of human Calu-6 cell growth in a cell viability assay.
# [34] = tested on: SW 962; type: functional, cell-based;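 further: growth inhibition of human SW962 cells, read out by a cell viability assay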
# Description: SANGER: Inhibition of human SW962 cell growth in a cell viability assay.
# [35] = tested on: UMC-11; type: functional, cell-based;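 further: growth inhibition of UMC-11 cells, read out with a cell viability assay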
# Description: SANGER: Inhibition of human UMC-11 cell growth in a cell viability assay.
# [36] = tested on: GAK; type: functional, cell-based;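 further: cell growth inhibition read out by a cell viability assay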
# Description: SANGER: Inhibition of human GAK cell growth in a cell viability assay.
# [37] = tested on: MN-60; type: functional, cell-based;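 further: growth inhibition of the MN-60 cell line, determined with a cell viability assay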
# Description: SANGER: Inhibition of human MN-60 cell growth in a cell viability assay.
# [38] = tested on: RCC10RGB; type: functional, cell-based;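 further: growth inhibition of human RCC10RGB cells, read out by a cell viability assay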
# Description: SANGER: Inhibition of human RCC10RGB cell growth in a cell viability assay.
# [39] = tested on: HD-MY-Z; type: functional, cell-based;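 further: growth inhibition of HD-MY-Z cells, read out with a cell viability assay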
# Description: SANGER: Inhibition of human HD-MY-Z cell growth in a cell viability assay.
# [40] = tested on: SNB-75; type: functional, cell-based;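 further: cell viability assay measuring growth inhibition of human SNB-75 cells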
# Description: SANGER: Inhibition of human SNB75 cell growth in a cell viability assay.
# [41] = tested on: NCI-H1155; type: functional, cell-based;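 further: cell growth inhibition measured by a viability assay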
# Description: SANGER: Inhibition of human NCI-H1155 cell growth in a cell viability assay.
# [42] = tested on: OCI-AML2; type: functional, cell-based;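 further: growth inhibition of OCI-AML2 cells, read out with a cell viability assay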
# Description: SANGER: Inhibition of human OCI-AML2 cell growth in a cell viability assay.
# [43] = tested on: NB13; type: functional, cell-based;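 further: cell viability readout measuring growth inhibition of human NB13 cells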
# Description: SANGER: Inhibition of human NB13 cell growth in a cell viability assay.
# [44] = tested on: LS-1034; type: functional, cell-based
# Description: SANGER: Inhibition of human LS-1034 cell growth in a cell viability assay.
# [45] = tested on: NCI-H1299; type: functional, cell-based;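 further: growth inhibition of human NCI-H1299 cells, read out by a cell viability assay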
# Description: SANGER: Inhibition of human NCI-H1299 cell growth in a cell viability assay.
# [46] = tested on: JAR; type: functional, cell-based;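 further: growth inhibition of human JAR cells determined with a cell viability assay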
# Description: SANGER: Inhibition of human JAR cell growth in a cell viability assay.
# [47] = tested on: CP66-MEL; type: functional, cell-based;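 further: growth inhibition of CP66-MEL cells determined in a cell viability assay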
# Description: SANGER: Inhibition of human CP66-MEL cell growth in a cell viability assay.
# [48] = tested on: HC-1; type: functional, cell-based;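 further: growth inhibition of HC-1 cells measured by a cell viability assay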
# Description: SANGER: Inhibition of human HC-1 cell growth in a cell viability assay.
# [49] = tested on: NCI-H1563; type: functional, cell-based;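 further: growth inhibition of human NCI-H1563 cells, read out with a cell viability assay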
# Description: SANGER: Inhibition of human NCI-H1563 cell growth in a cell viability assay.
# [50] = tested on: ES1; type: functional, cell-based;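 further: growth inhibition of ES1 cells, read out with a cell viability assay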
# Description: SANGER: Inhibition of human ES1 cell growth in a cell viability assay.
# [51] = tested on: no-11; type: functional, cell-based;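 further: growth inhibition of human NO-11 cells, read out with a cell viability assay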
# Description: SANGER: Inhibition of human no-11 cell growth in a cell viability assay.
# [52] = tested on: C8166; type: functional, cell-based;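 further: growth inhibition of human C8166 cells measured by a cell viability assay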
# Description: SANGER: Inhibition of human C8166 cell growth in a cell viability assay.
# [53] = tested on: QIMR-WIL; type: functional, cell-based;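 further: growth inhibition of QIMR-WIL cells, read out with a cell viability assay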
# Description: SANGER: Inhibition of human QIMR-WIL cell growth in a cell viability assay.
# [54] = tested on: KINGS-1; type: functional, cell-based;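 further: cell viability assay measuring suppression of KINGS-1 cell growth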
# Description: SANGER: Inhibition of human KINGS-1 cell growth in a cell viability assay.
# [55] = tested on: NCI-H1355; type: functional, cell-based;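 further: growth inhibition of human NCI-H1355 cells, read out by a cell viability assay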
# Description: SANGER: Inhibition of human NCI-H1355 cell growth in a cell viability assay.
# [56] = tested on: RPMI-8866; type: functional, cell-based
# Description: SANGER: Inhibition of human RPMI-8866 cell growth in a cell viability assay.
# [57] = tested on: SF-126; type: functional, cell-based
# Description: SANGER: Inhibition of human SF126 cell growth in a cell viability assay.
# [58] = tested on: MHH-PREB-1; type: functional, cell-based
# Description: SANGER: Inhibition of human MHH-PREB-1 cell growth in a cell viability assay.
# [59] = tested on: MDA-MB-157; type: functional, cell-based
# Description: SANGER: Inhibition of human MDA-MB-157 cell growth in a cell viability assay.
# [60] = tested on: LB2518-MEL; type: functional, cell-based
# Description: SANGER: Inhibition of human LB2518-MEL cell growth in a cell viability assay.
# [61] = tested on: LB831-BLC; type: functional, cell-based
# Description: SANGER: Inhibition of human LB831-BLC cell growth in a cell viability assay.
# [62] = tested on: MDA-MB-453; type: functional, cell-based
# Description: SANGER: Inhibition of human MDA-MB-453 cell growth in a cell viability assay.
# [63] = tested on: MKN-45; type: functional, cell-based
# Description: SANGER: Inhibition of human MKN45 cell growth in a cell viability assay.
# [64] = tested on: NCI-H2052; type: functional, cell-based
# Description: SANGER: Inhibition of human NCI-H2052 cell growth in a cell viability assay.
# [65] = tested on: KM12; type: functional, cell-based
# Description: SANGER: Inhibition of human KM12 cell growth in a cell viability assay.
# [66] = tested on: MV4-11; type: functional, cell-based, MV-4-11
# Description: SANGER: Inhibition of human MV-4-11 cell growth in a cell viability assay.
smiles,measurement,setting,value
O=c1[nH]c2ccccc2n1C1CCN(Cc2ccc(-c3nc4cc5[nH]cnc5cc4nc3-c3ccccc3)cc2)CC1,IC50,[1],> 2560 nM
same,IC50,[2],> 2560 nM
same,IC50,[3],> 2560 nM
same,IC50,[4],> 2560 nM
same,IC50,[5],> 2560 nM
same,IC50,[6],> 2560 nM
same,IC50,[7],> 2560 nM
same,IC50,[8],> 2560 nM
same,IC50,[9],> 2560 nM
same,IC50,[10],> 2560 nM
same,IC50,[11],> 2560 nM
same,IC50,[12],> 2560 nM
same,IC50,[13],> 2560 nM
same,IC50,[14],> 2560 nM
same,IC50,[15],> 2560 nM
same,IC50,[16],> 2560 nM
same,IC50,[17],> 2560 nM
same,IC50,[18],> 2560 nM
same,IC50,[19],> 2560 nM
same,IC50,[20],> 2560 nM
same,IC50,[21],> 2560 nM
same,IC50,[22],> 2560 nM
same,IC50,[23],> 2560 nM
same,IC50,[24],> 2560 nM
same,IC50,[25],> 2560 nM
same,IC50,[26],> 2560 nM
same,IC50,[27],> 2560 nM
same,IC50,[28],> 2560 nM
same,IC50,[29],> 2560 nM
same,IC50,[30],1080 nM
same,IC50,[31],> 2560 nM
same,IC50,[32],> 2560 nM
same,IC50,[33],> 2560 nM
same,IC50,[34],> 2560 nM
same,IC50,[35],> 2560 nM
same,IC50,[36],> 2560 nM
same,IC50,[37],> 2560 nM
same,IC50,[38],> 2560 nM
same,IC50,[39],> 2560 nM
same,IC50,[40],> 2560 nM
same,IC50,[41],> 2560 nM
same,IC50,[42],> 2560 nM
same,IC50,[43],> 2560 nM
same,IC50,[44],> 2560 nM
same,IC50,[45],> 2560 nM
same,IC50,[46],> 2560 nM
same,IC50,[47],> 2560 nM
same,IC50,[48],> 2560 nM
same,IC50,[49],542 nM
same,IC50,[50],> 2560 nM
same,IC50,[51],> 2560 nM
same,IC50,[52],> 2560 nM
same,IC50,[53],> 2560 nM
same,IC50,[54],> 2560 nM
same,IC50,[55],> 2560 nM
same,IC50,[56],> 2560 nM
same,IC50,[57],> 2560 nM
same,IC50,[58],> 2560 nM
same,IC50,[59],> 2560 nM
same,IC50,[60],> 2560 nM
same,IC50,[61],> 2560 nM
same,IC50,[62],> 2560 nM
same,IC50,[63],> 2560 nM
same,IC50,[64],> 2560 nM
same,IC50,[65],> 2560 nM
same,IC50,[66],> 2560 nM
Fc1cc(-c2cc[nH]/c(=N/c3ccc(-n4cnc(N5CCOCC5)n4)cc3)n2)cc(N2CCOCC2)c1,IC50,[1],412 nM
same,IC50,[2],537 nM
same,IC50,[3],121 nM
same,IC50,[4],4220 nM
same,IC50,[5],280 nM
same,IC50,[6],441 nM
same,IC50,[7],1770 nM
same,IC50,[8],458 nM
same,IC50,[9],805 nM
same,IC50,[10],> 5120 nM
same,IC50,[11],> 5120 nM
same,IC50,[12],1110 nM
same,IC50,[13],2730 nM
same,IC50,[14],4990 nM
same,IC50,[15],373 nM
same,IC50,[16],3030 nM
same,IC50,[17],1360 nM
same,IC50,[18],4230 nM
same,IC50,[19],705 nM
same,IC50,[20],775 nM
same,IC50,[21],328 nM
same,IC50,[22],2630 nM
same,IC50,[23],702 nM
same,IC50,[24],501 nM
same,IC50,[25],1030 nM
same,IC50,[26],543 nM
same,IC50,[27],1210 nM
same,IC50,[28],611 nM
same,IC50,[29],453 nM
same,IC50,[30],171 nM
same,IC50,[31],406 nM
same,IC50,[32],329 nM
same,IC50,[33],518 nM
same,IC50,[34],> 5120 nM
same,IC50,[35],179 nM
same,IC50,[36],790 nM
same,IC50,[37],894 nM
same,IC50,[38],889 nM
same,IC50,[39],1140 nM
same,IC50,[40],291 nM
same,IC50,[41],2630 nM
same,IC50,[42],498 nM
same,IC50,[43],4910 nM
same,IC50,[44],1920 nM
same,IC50,[45],366 nM
same,IC50,[46],3300 nM
same,IC50,[47],820 nM
same,IC50,[48],301 nM
same,IC50,[49],320 nM
same,IC50,[50],685 nM
same,IC50,[51],1350 nM
same,IC50,[52],445 nM
same,IC50,[53],343 nM
same,IC50,[54],> 5120 nM
same,IC50,[55],875 nM
same,IC50,[56],1180 nM
same,IC50,[57],3160 nM
same,IC50,[58],430 nM
same,IC50,[59],457 nM
same,IC50,[60],540 nM
same,IC50,[61],420 nM
same,IC50,[62],> 5120 nM
same,IC50,[63],994 nM
same,IC50,[64],1650 nM
same,IC50,[65],212 nM
same,IC50,[66],545 nM
